One data set is described as follows: in vitro. The settings on record: human, plasma. The format is in vitro ADME. The source says:
Data were plotted using GraphPad Prism.

The test system of another data set is C1498ff cells. As to the kind of experiment: C1498ff leukemia model in B6 albino mice, ANT308 schedules. It is filed as in vivo, mouse. The settings on record: high-dose (100 μg). As for the experimental part: All experimental procedures involving animals were approved by the Institutional Animal Care and Use Committee (IACUC) at Emory University. On day 0, B6 mice were injected by tail vein injection (i.v.) with 1 × 10^6 C1498 cells. DBA/2 mice were injected subcutaneously (s.c.) with 1 x 10^5 P815-luciferase mastocytoma cells. Growth of luciferase + C1498ff in B6 albino recipients was assessed by bioluminescent imaging (BLI) after mice were anesthetized, injected intraperitoneally (i.p.) with luciferin substrate (15 μg/g mouse), and imaged using an IVIS imaging system, starting at day 6 before treatment and continuing once weekly. Albino B6 mice surviving to >60 days without evidence of AML (by luciferase assay) received a second injection of a two-fold higher dose of C1498 (2 × 10^6 cells). DBA/2 mice that received P815 cells and treatment with ANT308, and survived past 60 days, were rechallenged using 2 x 10^5 P815 cells. Lymphocyte kinetics and C1498 leukemia cell burden were analyzed weekly through pterygoid venous plexus blood collection in CD45.1+ B6.SJL recipients; CD45.2 C1498 tumor cells were differentiated from CD45.1 host cells by flow cytometry. Mice that reached endpoint conditions were euthanized and counted as dead on the next day. […]

A short description of the next data set: in vivo. The settings on record: mouse, iv.
Another data set deals with human T cells. The settings on record: 3 µM.
Data set [1] deals with T1, VPAC1 on Vipr2 KO murine T-cells (Mus musculus, UniProt P97751).
T1 construct: Vipr2 knockout (KO) T-cells stained for VPAC1 (green); endogenous in cells; host or cells: T cells from Vipr2 knockout mice
T1 sequence (P97751 31-459): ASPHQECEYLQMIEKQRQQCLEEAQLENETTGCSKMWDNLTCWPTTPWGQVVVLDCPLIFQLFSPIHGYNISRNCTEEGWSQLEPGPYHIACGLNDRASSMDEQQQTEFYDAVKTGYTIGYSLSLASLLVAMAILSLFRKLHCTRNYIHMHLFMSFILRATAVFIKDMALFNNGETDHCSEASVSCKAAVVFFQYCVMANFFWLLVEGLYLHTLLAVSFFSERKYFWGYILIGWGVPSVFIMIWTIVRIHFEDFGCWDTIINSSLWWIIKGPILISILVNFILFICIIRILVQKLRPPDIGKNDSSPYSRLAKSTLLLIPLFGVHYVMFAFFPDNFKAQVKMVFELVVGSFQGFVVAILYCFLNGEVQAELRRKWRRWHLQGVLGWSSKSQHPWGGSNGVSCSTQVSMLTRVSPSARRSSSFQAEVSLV
As to the kind of experiment: Immunostaining colocalization with VPAC1 on Vipr2 KO murine T-cells. The format is cell-based. The settings on record: Pearson's correlation. On the procedure: Merge + NucleusSupplementary Figure 5. Immunostaining showing 6xHis-ANT308, 6xHis-VIP, and 6xHis-Scrambled-sequence peptides colocalization with VPAC1 on murine T-cells surface. Isolated T-cells from naïve wild-type (WT) C57BL/6 mice were activated with α-CD3/α-CD28 beads and incubated with 10µM (A-F) ANT308-6xHis, (G-L) VIP-6xHis and (M-R) VIP fully SCRAM-6xHis in the presence of IL-2 (30 IU/mL) for 1 hour. The cells were fixed with 4% Paraformaldehyde, stained with VPAC1 (green), 6xHis-tag (magenta) & Hoechst (blue) and visualized on Cell-Tak coated glass-bottom plates. (A-C, G-I and M-O) en face view, (D,J & P) representative field view, (E, K & Q) 3D view, (F, L & R) line scan profiles showing colocalization patterns of ANT308-6xHis, VIP-6xHis and VIP-fully scrambled-6xHis with VPAC1 on T-cell membrane. Relative fluorescence intensity (RFI), arbitrary unit. (S) Quantification of co-localization using Pearson’s correlation coefficient (R-value). Data are shown as mean ± SD with individual data points (n=10). Statistical significance was determined by one-way Anova with post-hoc multiple comparisons. **** p < 0.0001, *** p < 0.001. Scale 2.5µm.
Supplementary Figure 6. […] (K) Quantification of co-localization using Pearson’s correlation coefficient (R-value). […] Statistical significance was determined by one-way Anova with post-hoc multiple comparisons. **** p < 0.0001. […]

A short description of data set [2]: In vivo plasma half-life of 6xHis-tagged peptides after i.v. injection, western blot. The settings on record: mouse, iv. (In general: Immunoblotting shows a protein as a band on a membrane.)
Procedure: Plasma was collected at multiple time points post-injection and analyzed by SDS-PAGE using 12% polyacrylamide gel. Densitometry was performed using ImageJ and % peptide remaining was plotted using GraphPad Prism. The images were acquired using BioRad ChemiDoc Touch Imaging System with Image Lab Touch Software.
Data set [3] deals with VIP receptor (VIP-R) on human T cells (human (endogenous in human T cells)) (UniProt P32241).

Ends that are not written are not given here.

VIP receptor (VIP-R) on human T cells (human (endogenous in human T cells)), sequence (P32241 31-457): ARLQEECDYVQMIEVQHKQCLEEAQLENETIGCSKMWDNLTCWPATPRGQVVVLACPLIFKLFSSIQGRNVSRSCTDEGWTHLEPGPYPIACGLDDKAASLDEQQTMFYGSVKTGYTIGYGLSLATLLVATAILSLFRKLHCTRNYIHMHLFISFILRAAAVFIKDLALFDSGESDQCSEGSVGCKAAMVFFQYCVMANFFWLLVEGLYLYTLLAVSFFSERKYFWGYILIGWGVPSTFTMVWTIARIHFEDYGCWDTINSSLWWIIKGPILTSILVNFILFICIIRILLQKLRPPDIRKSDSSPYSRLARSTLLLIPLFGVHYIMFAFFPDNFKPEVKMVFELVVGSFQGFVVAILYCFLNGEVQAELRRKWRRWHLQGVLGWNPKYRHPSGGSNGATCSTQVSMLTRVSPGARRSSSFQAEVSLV

By half-life is commonly meant the time in which the quantity being followed falls by half. Low values mean rapid decline, high ones slow decline. The molecule `CC[C@H](C)[C@H](NC(=O)[C@H](CO)NC(=O)[C@H](CC(N)=O)NC(=O)[C@H](CC(C)C)NC(=O)[C@H](Cc1ccc(O)cc1)NC(=O)[C@H](CCCCN)NC(=O)[C@H](CCCCN)NC(=O)[C@@H](NC(=O)[C@H](C)NC(=O)[C@H](CCSC)NC(=O)[C@H](CCC(N)=O)NC(=O)[C@H](CCCCN)NC(=O)[C@H](CCCNC(=N)N)NC(=O)[C@H](CC(C)C)NC(=O)[C@H](CCCNC(=N)N)NC(=O)[C@@H](NC(=O)[C@H](Cc1ccc(O)cc1)NC(=O)[C@H](CC(N)=O)NC(=O)[C@H](CC(=O)O)NC(=O)[C@@H](NC(=O)[C@H](Cc1ccccc1)NC(=O)[C@@H](NC(=O)[C@H](C)NC(=O)[C@H](CC(=O)O)NC(=O)[C@H](CO)NC(=O)[C@@H](N)Cc1c[nH]cn1)C(C)C)[C@@H](C)O)[C@@H](C)O)C(C)C)C(=O)N[C@@H](CC(C)C)C(=O)N[C@@H](CC(N)=O)C(=O)N[C@@H](Cc1c[nH]cn1)C(=O)N[C@@H](Cc1c[nH]cn1)C(=O)N[C@@H](Cc1c[nH]cn1)C(=O)N[C@@H](Cc1c[nH]cn1)C(=O)N[C@@H](Cc1c[nH]cn1)C(=O)N[C@@H](Cc1c[nH]cn1)C(N)=O` [VIP-6xHis, reference compound] gave a half-life in “in vitro” of around 15 min.

Consider “KPRRPYTSDYTRLRKQMAVKKYLNLILN-NH2 [ANT308]”, for which the “toxic effects in weight or behavior of treated mice” value in the data set on C1498ff cells is reported as “did not produce any observable toxic effects”. With “KPRRPYTSDYTRLRKQMAVKKYLNLILNHHHHHH-NH2 [ANT308-6xHis]”, the half-life in the data set “in vitro” and in the data set “in vivo” was around 15 min throughout. In the data set on human T cells, “KPRRPYTVNYTSLRKQIAVKKYLMLILN-NH2 [ANT195]” came in with a T cell viability of around 30%.

As for “YDDHTKLKINTARLVSAQSNVFNMLKYRHHHHHH-NH2 (C-terminus assumed) [VIP fully SCRAM-6xHis]”, the “co-localization with VPAC1 in Vipr2 KO murine T-cells” value in data set [1] is “shows no overlap”. The half-life in data set [2] is around 30 min. In data set [3], KPRRPYTSDYTRLRKQMAVKKYLNLILN-NH2 [ANT308] gave a CD69 expression on CD4+ or CD8+ pooled human T cells treated with increasing concentrations of ANT308 (T cell activation, flow cytometry) of 0.3 to 0.4 µM.

The record behind these values is paper PMC13080581, “Identification and characterization of vasoactive intestinal peptide receptor antagonists with high-affinity and potent anti-leukemia activity” (The Journal of Biological Chemistry, 2025).
